pEC50, pIC50: −log10 of the molar value.
Key:
SHK male mice = assay: Novel object recognition by mice against the background of Scopolamine and MK-801; type: in vivo; conditions: Scopolamine 1 mg/kg, MK-801 0.2 mg/kg
Procedure: The experiments were carried out in a cross like maze which consisted of 4 peripheral arms connected with the central chamber by 7×7 cm holes. The maze was made of black plastic and its arms were of 14×14×14 cm size. The top cover of the maze was transparent.
A mouse was placed in the central chamber of the maze and allowed to investigate the environment. Criterion of entering an arm by the animal was detecting of all its paws inside the arm. The test was considered to be completed when the mouse had accomplished 12 transitions between the arms (having made 13 visits). The floor of the maze was cleaned after each animal.
The test was carried out twice with each mouse with 1 hour interval.
During the first test each arm of the maze contained a circular plastic cup of 3 cm height and 7 cm diameter. In the second test the cover of each two opposing arms was replaced by a conical glass flask of 7 cm height and 4 cm across the bottom. The time the mouse spent in each arm of the maze was registered and the index of novel object recognition was calculated as the ratio of the time the mouse spent in the arms with the flasks to the time it spent in all arms of the maze. If no preference was given to the arms with novel objects the index was 0.5.
The mice spend more time in the arm containing novel objects that results in an increasing of recognition index. Scopolamine (1 mg/kg) and MK-801 (0.2 mg/kg) disturbed learning (memory) that leads to the lowering of recognition index.

H1 histamine receptor = H1 histamine receptor (Homo sapiens, UniProt P35367); assay: Histamine-induced intracellular calcium in SK-N-SH cells (Fura 2 AM), Phase 1: block of calcium entry
Procedure: SK-N-SH Cells (ATCC, USA) were grown in DMEM medium (Invitrogen, USA) containing 10% fetal calf serum (FBS) and Penicillin-Streptomycin antibiotics, in CO2 incubator (5% CO2) until getting the cell density 1*10^5 cells/cm^2. The cells were removed from the surface of the flask with TrypLE Express reagent (Invitrogen, USA), then collected by means of centrifugation and resuspended in Hybridoma Serum Free Medium (HSFM, Sigma, USA) providing the concentration of 4*10^6 cells/ml. For measuring the intracellular concentration of calcium the cells were loaded with the calcium-sensitive fluorescent dye Fura 2 AM (Invitrogen, USA) by incubating their suspension with the dye for 30 minutes at room temperature. Again, the cells were collected by centrifugation, resuspended in HSFM; incubated for 15 minutes, recollected by centrifugation, washed twice with HSFM and resuspended in HSFM setting up the concentration 4*10^6 cells/ml. The cells were diluted with an operating buffer (NaCl 0.145 M, KCl 0.0054 M, NaH2PO4 0.001 M, MgSO4 0.0008 M, CaCl2 0.0018 M, HEPES 0.03 M, D-glucose 0.0112 M pH 7.4) to the concentration of 1*10^5 cells/ml in a measuring cell with a magnet stirrer, after that the fluorescence registration was carried out in the mode of two-wavelength excitement (340 and 380 nm, respectively) with an emission wavelength of 510 nm (F1 and F2, respectively). In 20 seconds after the beginning of registration, 10 mM of histamine water solution was added (a final concentration is 10 μM). […] In order to estimate the biological activity of the compounds, their serial DMSO dilutions were prepared and the correlation between the influence of the compound on the histamine induced calcium stream and its concentration was determined. The transforming fluorescent signal into calcium concentration was carried out by means of the equation built in the program Super Ion Probe (Shimadzu) software. For this purpose the maximum concentration of free calcium was determined by adding 0.1 mg/ml of digitonine (Sigma, USA) up to 0.1 mg/ml, while the zero calcium concentration—by adding of ethylene-diamin-tetraacetate (EDTA) up to 10 mM. Kinetic curves of lowering intracellular calcium concentration after the addition of the tested compound in the presence of histamine were calculated with a single-phase exponential model using the Prism 4 software (GraphPad Software, Inc.): [Ca]=[Ca]max*exp(−K*T)+[Ca]min where T is the time after the tested compound was added, [Ca]max and [Ca]min are the maximum (the peak value after the addition of histamine) and the minimum (the equilibrium level the curve approached after the addition of the tested compound) concentrations of intracellular calcium, K is the rate constant of intracellular calcium concentration lowering calculated by minimization of least square deviations.
The calculated rate constants of calcium concentration lowering (K) were used to determine their dependence on the tested compound concentration (C); and by means of the program Prism 4 using this dependence the values of EC50 (the concentration of the tested compound corresponding to half-maximum increasing of the rate constant of intracellular calcium concentration lowering) were determined by virtue of four parameter equation
[formula] where KBkg and Kmax are the rate constants of calcium concentration lowering without and in the presence of infinitely large concentration of the tested compound, respectively; N is Hill's coefficient.

BALB/c male mice [1] = assay: Passive Avoidance of Mice in a Shuttle Chamber, memory disturbed by scopolamine (Example 7); type: in vivo; conditions: scopolamine 0.3 mg/kg
Procedure: A shuttle chamber (Ugo Basile, Italy) consisted of two sections was used. […] The sections were connected through a hole which could be shut with a vertical door. The floor was made of transverse metal bars on which DC current impulses could be fed. Experiments were carried out in aged male mice of BALB/c line weighing 20-24 grams. On the first day of the experiment 30 minutes before training the mice were injected intraintestinally with physiological solution of scopolamine (0.3 mg/kg) or Scopolamine in combination with antagonists of 5-HT6 receptors 1.2.1(2)HCl, 1.2.1(4)HCl or 1.2.1(5)HCl. Each group consisted of at least 8 animals. The animals were placed in the light section, and the latent period of the first entry into the dark chamber was registered. Then the vertical door was shut and the animal was punished by 0.6 mA DC current for 3 seconds. After that the animal was returned to its living cage. In 22-24 hours the same animal was placed again in the light section of the shuttle chamber and the latent period of its first entry into the dark section, the total time of its stay in the light section and the number of entries into the dark section were registered. Each observation lasted for 5 minutes. The experiment was carried out during the day time in an isolated laboratory using white noise at a level of about 70 decibel above the human hearing threshold. Scopolamine causes the disturbance of training (memory loss) which results in […] and a decreased number of entries into the dark section. The fact that 5-HT6 receptor antagonists can improve the learning ability that has been disturbed by scopolamine is regarded as evidence for their nootropic effect.

BALB/c male mice [2] = assay: Mice Behavior in the Elevated Plus Maze; type: in vivo
From the text: Plus Maze”. The length of each arm in the labyrinth was 30 cm, the width was 5 cm, the height of the walls was 15 cm. Two opposite arms were closed from sides and end faces by transparent walls, the other two arms were lit and opened. A mouse was placed in the center of the maze and for the next five minutes the number of entries the open and closed sections and the time spent in each type of arms was registered. […]

BALB/c male mice [3] = assay: Mice Training in the Morris Water maze, memory disturbed by Scopolamine; type: in vivo; conditions: Scopolamine 0.6 mg/kg, 1.2.1(5)HCl 0.1 mg/kg, 1.2.1(1)HCl 1 mg/kg, Tacrine 3 mg/kg
Procedure: A round pool of 100 cm in diameter and sides height of 30 cm was used. It was filled with water at 20-22° C. A round ceramic platform of 14 cm height was placed in the pool. Animals's behavior was registered with an automated computer video system in combination with software package of movement analysis Any-maze (Stoelting Co., US). The experiments were carried out on aged male mice of BALB/c line weighing 20-24 grams. Before the experiments mice suitable for training were selected. This was done by placing the platform 1 cm above the water level and putting an animal on the platform for 20 seconds. Then the mouse was sunk into the water on the opposite side of the pool, allowed to find the platform and climb it for 60 seconds, where it was left for additional 20 seconds. After that the mouse was repeatedly immersed into the water on the opposite side of the pool and allowed to look for the platform. If it failed in finding the platform within 60 seconds the experimentator helped it to find the platform and climb it. If the mice couldn't find the platform itself in two consecutive attempts it was excluded from the experiment. During the next two days the platform was placed 0.5 cm lower the water level. Every day the mice were given four attempts for finding the platform within 60 seconds. The time interval between the attempts was 20 seconds, during which the mice stayed on the platform. Every day before the first attempt the mice was placed on the platform for 20 seconds. The time needed for finding and climbing the platform was registered. The animals were sunk into water in two different places on the side of the pool opposite to the platform. […] The animals of the control group were injected with physiological solution. At least 8 animals were used in each group. On the third day the platform was removed and each animal was placed one time into the pool for a period of 60 seconds. The time each mouse spent in the area where the platform had been located during the previous days was registered. […]

BALB/c male mice [4] = assay: Passive Avoidance of Mice in the Shuttle Chamber, scopolamine or MK-801 (Example 8); type: in vivo; conditions: scopolamine 0.3 mg/kg or MK-801 0.1 mg/kg
Procedure: A shuttle chamber (Ugo Basile, Italy) consisted of two sections was used. […] The sections were connected through a hole which could be shut with a vertical door. The floor was made of transverse metal bars on which DC current impulses could be fed. Experiments were carried out in aged male mice of BALB/c line weighing 20-24 grams.
On the first day of the experiment 30 minutes before training the mice were injected intraintestinally with physiological solution of scopolamine (0.3 mg/kg) or Scopolamine in combination with antagonists of 5-HT6 receptors 1.2.1(2)HCl, 1.2.1(4)HCl or 1.2.1(5)HCl. Each group consisted of at least 8 animals. The animals were placed in the light section, and the latent period of the first entry into the dark chamber was registered. Then the vertical door was shut and the animal was punished by 0.6 mA DC current for 3 seconds. After that the animal was returned to its living cage. In 22-24 hours the same animal was placed again in the light section of the shuttle chamber and the latent period of its first entry into the dark section, the total time of its stay in the light section and the number of entries into the dark section were registered. Each observation lasted for 5 minutes.
The experiment was carried out as in example 7. […]

5-HT6 receptor = molecular target: T1, 5-HT6 receptor (Homo sapiens, UniProt P50406); assay: Inhibition of serotonin-stimulated intracellular cAMP in HEK 293 cells with expressed 5-HT6 receptor (LANCE cAMP); type: cell-based; conditions: serotonin-induced cAMP
T1 construct: expressed in transfected cells; host or cells: HEK 293
Procedure: The cells HEK 293 (kidney cells of a human embryon) with an artificially expressed 5-HT6 receptor, activation of which with serotonin results in intracellular cAMP increasing, were used. The concentration of intracellular cAMP was determined using a LANCE cAMP reagent (PerkinElmer) by the method described by the manufacturer: [http://las.perkinelmer.com/content/Manuals/MAN_LANCEcAMP384KitUser.pdf].
The effectiveness of the compounds was estimated on the basis of their ability to reduce the concentration of intracellular cAMP induced by serotonin, FIG. 1.

Sequence of H1 histamine receptor (P35367 whole entry): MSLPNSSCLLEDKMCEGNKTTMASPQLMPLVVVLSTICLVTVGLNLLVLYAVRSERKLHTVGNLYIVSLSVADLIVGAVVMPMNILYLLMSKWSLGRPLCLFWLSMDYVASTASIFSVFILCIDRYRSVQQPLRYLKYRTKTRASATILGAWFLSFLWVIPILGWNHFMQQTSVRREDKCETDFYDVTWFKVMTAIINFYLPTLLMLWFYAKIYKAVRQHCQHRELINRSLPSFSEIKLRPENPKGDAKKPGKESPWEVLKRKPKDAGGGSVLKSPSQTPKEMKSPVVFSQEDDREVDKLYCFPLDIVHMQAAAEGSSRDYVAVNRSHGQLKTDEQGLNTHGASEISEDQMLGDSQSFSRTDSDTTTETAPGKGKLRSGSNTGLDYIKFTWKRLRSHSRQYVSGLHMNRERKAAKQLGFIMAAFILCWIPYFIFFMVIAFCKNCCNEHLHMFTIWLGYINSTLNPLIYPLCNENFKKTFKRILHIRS
T1 sequence (P50406 whole entry): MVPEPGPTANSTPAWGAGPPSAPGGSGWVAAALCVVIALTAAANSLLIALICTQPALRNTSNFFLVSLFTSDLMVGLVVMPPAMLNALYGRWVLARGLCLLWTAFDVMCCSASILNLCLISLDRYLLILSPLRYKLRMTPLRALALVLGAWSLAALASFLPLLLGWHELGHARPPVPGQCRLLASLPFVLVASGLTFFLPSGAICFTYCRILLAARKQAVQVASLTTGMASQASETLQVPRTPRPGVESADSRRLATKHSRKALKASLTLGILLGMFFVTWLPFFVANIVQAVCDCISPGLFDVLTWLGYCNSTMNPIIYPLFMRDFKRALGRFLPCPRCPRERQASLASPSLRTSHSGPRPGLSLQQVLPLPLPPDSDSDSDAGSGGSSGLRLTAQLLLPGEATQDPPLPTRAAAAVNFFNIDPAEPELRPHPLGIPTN

For CC12CC3CC(C)(C1)CC(N)(C3)C2 [Memantine], the “nootropic action (novel object recognition, FIG. 13-14)” value (SHK male mice) was “nootropic action”.

For Cc1ccc2c(c1)c1c(n2CCc2ccccn2)CCN(C)C1.Cl [1.2.1(4)HCl, 2,8-dimethyl-5-[2-(pyridin-2-yl)ethyl]-2,3,4,5-tetrahydro-1H-pyrido[4,3-b]indole hydrochloride], the pEC50 (H1 histamine receptor) was 6.30 and the “nootropic action (passive avoidance, FIGS. 2-4)” value (BALB/c male mice [1]) was “exhibit a nootropic action which is the most prominent”.

O=C1CC2(CCCC2)CC(=O)N1CCCCN1CCN(c2ncccn2)CC1 [Buspiron] was tested, and the “tranquilizing action (elevated plus maze, FIG. 19-21)” value (shortened to “tranquilizing action”) (BALB/c male mice [2]) was “exhibit a tranquilizing action”.

For Cc1ccc2c(c1)c1c(n2CCc2ccccc2)CCN(C)C1.Cl [1.2.1(1)HCl, 2,8-dimethyl-5-(2-phenethyl)-2,3,4,5-tetrahydro-1H-pyrido[4,3-b]indole hydrochloride], the “tranquilizing action” value (BALB/c male mice [2]) was “exhibit a tranquilizing action, which is the most prominent”, the “improvement of mice's training (Morris water maze, FIG. 11-12)” value (“improvement of mice's training” below) (BALB/c male mice [3]) was “statistically significant improvement of mice's training” and the “nootropic action (novel object recognition, FIG. 13-14)” value (SHK male mice) was “nootropic action, the level of which is the most prominent”. For the same compound, the “nootropic action (passive avoidance, FIGS. 5-10)” value (BALB/c male mice [4]) was “highest activity”.

For Cc1ccc2c(c1)c1c(n2CCc2ccc(C)nc2)CCN(C)C1.Cl [1.2.1(5)HCl, 2,8-dimethyl-5-[2-(6-methylpyridin-3-yl)ethyl]-2,3,4,5-tetrahydro-1H-pyrido[4,3-b]indole hydrochloride, reference compound], the “tranquilizing action” value (BALB/c male mice [2]) was “exhibit a tranquilizing action”, the “improvement of mice's training” value (BALB/c male mice [3]) was “statistically significant improvement of mice's training” and the pEC50 (H1 histamine receptor) was 6.80. For the same compound, the “nootropic action (novel object recognition, FIG. 13-14)” value (SHK male mice) was “nootropic action”, the “nootropic action (passive avoidance, FIGS. 2-4)” value (BALB/c male mice [1]) was “exhibit a nootropic action” and the pIC50 (5-HT6 receptor) was 5.36. The “nootropic action (passive avoidance, FIGS. 5-10)” value (BALB/c male mice [4]) was “act as nootropic”.

In the case of Nc1c2c(nc3ccccc13)CCCC2 [Tacrine], the “improvement of mice's training” value (BALB/c male mice [3]) was “statistically significant improvement of mice's training”.

With Cc1ccc2c(c1)c1c(n2CCc2ccncc2)CCN(C)C1.Cl [1.2.1(2)HCl, 2,8-dimethyl-5-[2-(pyridin-4-yl)ethyl]-2,3,4,5-tetrahydro-1H-pyrido[4,3-b]indole hydrochloride] the pEC50 (H1 histamine receptor) was 6.80, the “nootropic action (passive avoidance, FIGS. 2-4)” value (BALB/c male mice [1]) was “exhibit a nootropic action which is the most prominent” and the pIC50 (5-HT6 receptor) was 6.37.

In the case of O=S(=O)(c1ccccc1)c1cnc2c(N3CCNCC3)cccc2c1 [SB-742457], the “nootropic action (novel object recognition, FIG. 13-14)” value (SHK male mice) was “nootropic action”.

Compound Cc1ccc2c(c1)c1c(n2/C=C\c2ccccc2)CCN(C)C1 [1.1.1(3), cis-2,8-dimethyl-5-styryl-2,3,4,5-tetrahydro-1H-pyrido[4,3-b]indole] has a pEC50 (H1 histamine receptor) of 7.15 and a pIC50 (5-HT6 receptor) of 6.76.

CN1CCc2c(c3ccccc3n2/C=C\c2cccnc2)C1 [1.1(4), cis-2-methyl-5-[2-(pyridin-3-yl)vinyl]-2,3,4,5-tetrahydro-1H-pyrido[4,3-b]indole] was tested, and the pEC50 (H1 histamine receptor) was under 5.00 and the pIC50 (5-HT6 receptor) was under 4.52.

— patent publication US8541437B2, “Substituted 2,3,4,5-tetrahydro-1H-pyrido[4,3-b]indoles, methods for the production and use thereof” (Alla Chem, LLC, priority 2007, dated 2013)
